The source of these data is patent US6852761B2, “Polycyclic aryl and heteroaryl substituted benzenes useful for selective inhibition of the coagulation cascade” (Pharmacia Corporation, priority 2000, dated 2005).

Some results are limits rather than exact numbers.

The target in experiment [1] is T1, recombinant soluble tissue factor and recombinant human factor VIIa (TF-VIIA) (Homo sapiens, UniProt P08709).
T1 construct: conversion of coagulation factor VII to VIIa by Xa; purchased American Diagnostica, Greenwich Conn; (factor VIIa); host or cells: soluble TF made in house in E. coli
T1 sequence (P08709 213-466 limits assumed): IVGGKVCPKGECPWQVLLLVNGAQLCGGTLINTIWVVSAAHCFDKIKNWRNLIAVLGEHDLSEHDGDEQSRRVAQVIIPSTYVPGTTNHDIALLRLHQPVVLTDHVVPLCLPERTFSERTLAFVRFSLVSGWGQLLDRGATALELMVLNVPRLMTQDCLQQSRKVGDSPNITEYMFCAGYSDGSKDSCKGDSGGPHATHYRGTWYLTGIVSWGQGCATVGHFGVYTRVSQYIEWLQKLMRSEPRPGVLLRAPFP
T1 sequence (P08709 61-212 limits assumed): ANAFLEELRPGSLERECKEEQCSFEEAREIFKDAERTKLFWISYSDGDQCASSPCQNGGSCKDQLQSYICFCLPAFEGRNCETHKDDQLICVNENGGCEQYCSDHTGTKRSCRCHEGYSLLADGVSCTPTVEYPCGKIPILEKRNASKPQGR
T1 sequence (P13726 33-251 partner limits assumed): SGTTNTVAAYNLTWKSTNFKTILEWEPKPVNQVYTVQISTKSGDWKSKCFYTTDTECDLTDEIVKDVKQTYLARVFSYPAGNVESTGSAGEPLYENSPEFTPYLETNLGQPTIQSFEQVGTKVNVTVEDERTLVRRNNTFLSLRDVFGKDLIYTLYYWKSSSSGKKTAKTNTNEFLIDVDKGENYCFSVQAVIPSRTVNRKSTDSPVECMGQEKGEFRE
Briefly: TF-VIIa Assay. Type of experiment: biochemical.
Protocol: In this assay 100 nM recombinant soluble tissue factor and 2 nM recombinant human factor VIIa are added to a 96-well assay plate containing 0.4 mM of the substrate, N-Methylsulfonyl-D-phe-gly-arg-p-nitroaniline and either inhibitor or buffer (5 mM CaCl2,50 mM Tris-HCl, pH 8.0, 100 mM NaCl, 0.1% BSA). The reaction, in a final volume of 100 ul is measured immediately at 405 nm to determine background absorbance. The plate is incubated at room temperature for 60 min, at which time the rate of hydrolysis of the substrate is measured by monitoring the reaction at 405 nm for the release of p-nitroaniline. Percent inhibition of TF-VIIa activity is calculated from OD405nm value from the experimental and control sample.

A further experiment has as its target T2, human factor Xa (Homo sapiens, UniProt P00742).
T2 construct: leads from XII to XIIa to XIa to IXa and to the conversion of X to Xa; purchased Enzyme Research Laboratories, South Bend Ind
Briefly: Xa Assay. In kind it is biochemical. How it is done:
0.3 nM human factor Xa and 0.15 mM N-α-Benzyloxycarbonyl-D-arginyl-L-glycyl-L-arginine-p-nitroaniline-dihydrochloride (S-2765) are added to a 96-well assay plate containing either inhibitor or buffer (50 mM Tris-HCl, pH 8.0, 100 mM NaCl, 0.1% BSA). The reaction, in a final volume of 100 ul is measured immediately at 405 nm to determine background absorbance. The plate is incubated at room temperature for 60 min, at which time the rate of hydrolysis of the substrate is measured by monitoring the reaction at 405 nm for the release of p-nitroaniline. Percent inhibition of Xa activity is calculated from OD405 nm value from the experimental and control sample.
Recombinant soluble TF, consisting of amino acids 1-219 of the mature protein sequence was expressed in E. coli and purified using a Mono Q Sepharose FPLC. Recombinant human VIIa was purchased from American Diagnostica, Greenwich Conn. and chromogenic substrate N-Methylsulfonyl-D-phe-gly-arg-p-nitroaniline was prepared by American Peptide Company, Inc., Sunnyvale, Calif. Factor Xa was obtained from Enzyme Research Laboratories, South Bend Ind., thrombin from Calbiochem, La Jolla, Calif., and trypsin and L-BAPNA from Sigma, St. Louis Mo. The chromogenic substrates S-2765 and S-2238 were purchased from Chromogenix, Sweden.

T2 sequence (P00742 235-488 limits assumed): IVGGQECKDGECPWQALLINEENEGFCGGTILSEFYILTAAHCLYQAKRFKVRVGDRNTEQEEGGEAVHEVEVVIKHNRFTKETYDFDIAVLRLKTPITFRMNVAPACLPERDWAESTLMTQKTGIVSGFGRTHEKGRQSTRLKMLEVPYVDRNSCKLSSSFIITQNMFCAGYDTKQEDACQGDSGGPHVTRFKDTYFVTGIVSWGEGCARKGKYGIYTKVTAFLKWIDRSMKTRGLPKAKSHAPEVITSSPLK
T2 sequence (P00742 41-179 limits assumed): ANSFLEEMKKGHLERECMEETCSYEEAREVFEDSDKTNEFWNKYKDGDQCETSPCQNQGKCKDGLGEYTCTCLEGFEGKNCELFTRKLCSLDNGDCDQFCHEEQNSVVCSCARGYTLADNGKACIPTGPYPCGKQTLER

As a reminder, the IC50 is the midpoint of a concentration-inhibition curve. As to `O=C(NCC1CCNCC1)c1cc(NS(=O)(=O)Cc2ccccc2)ccc1Sc1ccccc1` [Example 1], the IC50 in experiment [1] was above 30 µM.

In the case of `CN(C)c1ccc(CNC(=O)c2cc(NS(=O)(=O)Cc3ccccc3)ccc2Sc2ccccc2)cc1` [Example 2], the IC50 (against human factor Xa; in experiment [1]) was above 30 µM in each case.

`O=C(NCc1ccncc1)c1cc(NS(=O)(=O)Cc2ccccc2)ccc1Sc1ccccc1` [Example 3]: the IC50 (at human factor Xa; in experiment [1]) was above 30 µM throughout.

`N=C(N)c1ccc(CNC(=O)c2cc(NS(=O)(=O)Cc3ccccc3)ccc2Sc2ccccc2)cc1` [Example 4]: the 50% inhibitory concentration (IC50) (at human factor Xa; in experiment [1]) was above 30 µM throughout.

For `O=C(Cc1c(F)ccc(NS(=O)(=O)Cc2ccccc2)c1F)NCC1CCNCC1` [Example 9], the IC50 (against human factor Xa; in experiment [1]) was above 30 µM each time.

With `CN(C)c1ccc(CNC(=O)Cc2c(F)ccc(NS(=O)(=O)Cc3ccccc3)c2F)cc1` [Example 10], the IC50 in experiment [1] was above 30 µM.

As for `O=C(Cc1c(F)ccc(NS(=O)(=O)Cc2ccccc2)c1F)NCc1ccncc1` [Example 11], the IC50 in experiment [1] was above 30 µM.

As to `O=C(Cc1c(F)ccc(NS(=O)(=O)Cc2ccccc2)c1F)NCCCn1ccnc1` [Example 12], the IC50 (at human factor Xa; in experiment [1]) was above 30 µM in each case.

In the case of `N=C(N)c1cccc(CNC(=O)Cc2c(F)ccc(NS(=O)(=O)Cc3ccccc3)c2F)c1` [Example 13], in experiment [1], the IC50 was above 30 µM.

On to `N=C(N)c1ccc(CNC(=O)Cc2c(F)ccc(NS(=O)(=O)Cc3ccccc3)c2F)cc1` [Example 14], for which the concentration for half-maximal inhibition (IC50) (against human factor Xa; in experiment [1]) was above 30 µM each time.

Turning to `N=C(N)NCCCCCNC(=O)Cc1c(F)ccc(NS(=O)(=O)Cc2ccccc2)c1F` [Example 15], the IC50 (against human factor Xa; in experiment [1]) was above 30 µM each time.

Consider `N=C(N)c1ccc(CNC(=O)Cc2c(-c3ccccc3)ccc(NCCc3ccccc3)c2F)cc1` [Example 17], for which the IC50 against human factor Xa was above 30 µM.

For the compound `N=C(N)c1ccc(CNC(=O)Cc2c(-c3ccccc3)ccc(NCCc3ccccc3)c2O)cc1` [Example 19], the IC50 against human factor Xa is above 30 µM.

`COc1c(NC(C)C)ccc(-c2ccccc2)c1CC(=O)NCc1ccc(C(=N)N)cc1` [Example 22] displayed a concentration for half-maximal inhibition (IC50) against human factor Xa above 30 µM.
